From patent publication US9504248B2, “Antimicrobial composition” (Rohm and Haas Company, priority 2011, dated 2016)
Converted amounts (≈) assume the structure as drawn. Read-outs that look alike come from different tables or passages of the source.

Columns and labels:
[1] = tested on: Escherichia coli (10536 strain); assay: 15 second contact suspension kill assay (Example 1 protocol, also Example 3); type: cell-based; details: for NMBS, mean bacterial survival / bacterial kill (in words): 15 s contact; for NMBS, mean bacterial survival: active concentrations (% w/v) as defined per example, 0 = complete kill, mean of triplicate; for MBC: Escherichia coli, 15 s
Source text: The efficacies of antimicrobial agents can be usefully compared by determining the Minimum Biocidal Concentration (MBC). The MBC is defined as the lowest absolute concentration of the particular active that provides complete kill (zero bacterial growth). The differing behaviours of inhibitory antimicrobtals in Isolation and mixtures have been widely explored using the concept of the Fractional Concentration and Fractional Inhibitory Concentration (FIC). See for instance J R W Lambert and R Lambert, J. Appl. Microblol 95, 734 (2003); T. Jadavji. C G Prober and R Cheung. Antimicrobial Agents and Chemotherapy 26, 91 (1984), and WO 2004/006876. These parameters can be defined as follows:
[formula] [formula] By analogy the Fractional Biocidal Concentration (FBC) is given by:
Antimicrobial efficacy is tested against a representative pathogenic bacterial organism, Gram negative Escherichia coli. Concentrations of actives are expressed in terms of the percentage weight/volume (% w/v) throughout Example 1.
An overnight culture of Escherichia coli (10536 strain) was prepared in 50 ml total volume of TSB broth, grown for ca. 18 hrs at 37° C. and shaken at 150 rpm. 1 ml of this overnight E. coli culture was transferred to 50 ml of fresh TSB broth and incubated at 37° C. at 150 rpm for ca. 4 hours. This culture was separated into equal volumes and centrifuged at 4000 rpm for 15 minutes, washed with sterile saline (0.85% NaCl), centrifuged once more and re-suspended in saline to give a final concentration of 0.8 OD620 equivalent to about 10^8 cells per milliliter for this particular organism. Here, OD620 indicates the absorbance of a sample in a cuvette of 1.0 cm path length at a wavelength of 620 nm. This bacterial stock was used for assaying against antimicrobial actives (in triplicate).
The following assay describes the testing of 8 materials using 6 dilutions across half of a 96-well micro titre plate (MTP). Using this approach it is possible to assay 16 actives (without replicates) with one full dilution plate, replicating this set up in two halves of the plate columns, 1-6 and 7-12.
1M solutions of the test actives were prepared in dimethylsulphoxide (DMSO).
Aliquots (270 μl) of the materials at 1.11 times the final concentration were dispensed into the wells of the MTP along one column (A1-H1). This MTP was labelled as the “Screening plate”.
In another MTP, labelled as the “Dilution plate”, 270 μl of D/E neutralising solution from DIFCO Composition was added to column 1. The composition of the neutralising solution was as follows: pancreatic digest of casein, 5.0 g/L; Yeast Extract, 2.5 g/L; Dextrose, 10 g/L, sodium thioglycollate, 1.0 g/L, sodium thiosulphate, 6.0 g/L; sodium bisulphite, 2.5 g/L; Polysorbate 80, 5.0 g/L; lecithin 7.0 g/L; bromocresol purple, 0.02 g/L with a pH in the range 7.6±0.2.
270 μl of tryptone diluent solution was added to all the remaining wells of the Dilution MTP (columns 2-6).
Bacterial stock (30 μl) was then added to the prepared 270 μl of the solution of actives in the Screening Plate and mixed, using a multichannel pipette with 8 tips to aspirate and dispense the same volume of bacterial stock in parallel to 8 wells in rows A-H. After a contact time of 15 seconds, the mixtures were quenched by transferring 30 μl volumes of the mixtures into the 270 μl D/E neutralising solution in the prepared dilution plate, using aspiration to mix. After exactly 5 minutes in the DIE neutralising solution, 30 μl volumes were transferred from column 1 to column 2 of the Dilution MTP and mixed, before transferring further 30 μl volumes from column 2 into column 3. This process was repeated serially diluting the bacteria across the plate to column 6.
30 μl volumes from each well in the Dilution MTP were transferred onto pre-labelled segment of Tryptone Soya Agar (TSA) plates starting from the lowest bacterial concentration (highest dilution, column 6) to the highest bacterial concentration (column 1).

[2] = tested on: Escherichia coli (E. coli - ATCC #10536); assay: Automated assessment of efficacy in surfactant base, 15 seconds exposure, OD450/OD590 readout (Example 4); type: cell-based; details: cocoyl glycinate and lauroamphoacetate
Protocol: In these examples, the efficacy of combinations of monosubstituted phenols and terpineol were tested in a surfactant cleansing formulation comprising 2.85% sodium cocoyl glycinate and 1.85% sodium lauroamphoacetate. This corresponds to a 50% in use dilution with water of a typical neat formulation containing 5.7% cocoyl glycinate and 3.7% % sodium lauroamphoacetate during hand washing. Solutions were prepared such that the concentrations of the surfactant components and test actives were 1.1 times the final desired concentration in order to allow for dilution with the bacterial inoculum in the test. The solutions were manually adjusted to pH 10.0 by dropwise addition of sodium hydroxide solution, as measured with a pH meter at ambient temperature. Solutions of the monosubstituted phenols and/or terpineols were prepared at a maximum of 24 hours before testing. The same terpineol was used as in Example 1.
The efficacy of the combinations of the present invention was determined against the same bacterium as in Example 1, Escherichia coli (E. coli—ATCC #10536), at a concentration of approximately 1×10^8 bacteria per mL.
Tests were conducted using standard microtiter plate assays using an automated liquid handling system. 270 μl of the surfactant test solution was pipetted into each well of the microtitre plate (Nunc F Gamma Irradiated 96F untreated microtitre plates of clear polystyrene) and 30 μl of the bacterial suspension was then added. After exactly 15 seconds of bacterial exposure, a 30 μl volume of bacterial cells was withdrawn and transferred to 270 μl of D/E quench solution. After 5 minutes in the D/E quench, the optical density (OD) was measured for each plate in turn at two specific wavelengths (450 nm and 590 nm). These provide a dual check of antimicrobial activity, as the OD450 reading is specific for the yellow colour of D/E quench when bacterial growth is observed, whereas OD590 is specific for the initial purple colour of the D/E quench which is retained if no bacterial growth is observed. After the time zero OD measurements, plates were then incubated at 37° C. overnight (16 hours) before repeating the OD measurements. Delta OD values were calculated by subtracting […] at time=16 hours. Bacterial growth is observed as an increase in OD450 and a decrease in OD590. To identify antibacterially efficacious systems (those preventing appreciable bacterial growth after incubation), the following threshold changes in OD readings have been adopted: if (1). OD450 increases by less than 0.2 absorbance unit (AU) on incubation and (2). OD590 decreases by less than 0.35 AU on incubation. Conversely, where OD450 increases by more than […] after incubation, corresponding to a colour shift from purple to yellow, the test system allows bacterial growth and is not deemed efficacious. Four replicate measurements in the same plate have been made for each test system. The number of replicate wells showing either bacterial growth or no growth is also readily assessed by eye by following the colour change. Thymol and terpineol were tested both alone and in combination for comparison purposes.
In some selected cases, the combinations were also tested at the weight ratio 1:1.
The surfactants used are not themselves antimicrobially active against E. coli at the concentrations employed as shown by the results of Ex. (4:1) in Table 24. Thus, any antimicrobial efficacy can be ascribed to the monosubstituted phenols and/or terpineol. Table 25 presents MBC-values determined similarly as described for Example 1.

[3] = component alone, lowest tested concentration giving zero bacterial survival after 15 s, upper boundary, read-out: Minimum biocidal concentration (MBC)

Structure (SMILES)	NMBS, mean bacterial survival [1]	further results
CC1=CCC(C(C)(C)O)CC1 (stereo not drawn) [1:7, alpha-terpineol]	7 log CFU/ml	
CCCCCc1ccc(O)cc1 [1:15, 4-n-pentylphenol]	0 log CFU/ml	
CCC(C)c1ccc(O)cc1 (centres unmarked) [4-sec-butylphenol]		MBC [1, 3]: 800 µg/mL (≈ 5.33 mM); antimicrobial action in combination with terpineol in the presence of surfactant (in words) [2]: enhanced antimicrobial action
C/C=C/c1ccccc1O [1:39, (E)-2-(prop-1-enyl)phenol]	6.9 log CFU/ml	
Cc1ccc(C(C)C)c(O)c1 [A, thymol, reference compound]		bacterial kill (in words) [1]: not showing bacterial kill
Oc1ccccc1C1CCCC1 [1:33, 2-cyclopentylphenol]	7.5 log CFU/ml	
CCC(C)c1ccc(O)cc1 (centres unmarked) [1:29, 4-sec-butylphenol]	7.6 log CFU/ml	
CC(C)(C)c1cccc(O)c1 [1:21, 3-tert-butylphenol]	0 log CFU/ml	
CCC(C)c1ccc(O)cc1 (centres unmarked) [1:28, 4-sec-butylphenol]	4.1 log CFU/ml	
CCCc1ccc(O)cc1 [1:9, 4-n-propylphenol]	7.8 log CFU/ml	
Oc1ccc(Cc2ccccc2)cc1 [1:45, 4-benzylphenol]	3.8 log CFU/ml	
C/C=C/c1ccccc1O [1:38, (E)-2-(prop-1-enyl)phenol]	0 log CFU/ml	
Oc1cccc(-c2ccccc2)c1 [3-phenylphenol]		MBC ([1]; read-out: Minimum biocidal concentration (MBC), component alone, lowest tested concentration giving zero bacterial survival after 15 s, upper boundary): ≥ 1250 µg/mL; antimicrobial action in combination with terpineol in the presence of surfactant (in words) [2]: enhanced antimicrobial action
C/C=C/c1ccccc1O [(E)-2-(prop-1-enyl)phenol]		MBC ([1]; read-out: Minimum biocidal concentration (MBC)): 1500 µg/mL (≈ 11.2 mM); antimicrobial action in combination with terpineol in the presence of surfactant (in words) [2]: enhanced antimicrobial action
Oc1ccccc1C1CCCC1 [1:32, 2-cyclopentylphenol]	3.4 log CFU/ml	
Oc1ccc(Cc2ccccc2)cc1 [1:44, 4-benzylphenol]	0 log CFU/ml	
Oc1ccccc1C1CCCC1 [1:31, 2-cyclopentylphenol]	0 log CFU/ml	
Oc1ccccc1Cc1ccccc1 [1:41, 2-benzylphenol]	0 log CFU/ml	
Oc1cccc(-c2ccccc2)c1 [3:2, 3-phenylphenol]	7.4 log CFU/ml	
CCC(C)c1ccc(O)cc1 (centres unmarked) [1:27, 4-sec-butylphenol]	0 log CFU/ml	
CC(C)(C)c1ccc(O)cc1 [4-tert-butylphenol]		antimicrobial action in combination with terpineol in the presence of surfactant (in words) [2]: enhanced antimicrobial action

Structure (SMILES)	NMBS, mean bacterial survival [1]	further results
CC(C)(C)c1cccc(O)c1 [1:22, 3-tert-butylphenol]	7.6 log CFU/ml	
CC1=CCC(C(C)(C)O)CC1 (stereo not drawn) [1:4, alpha-terpineol]	0 log CFU/ml	
CC(C)(C)c1ccccc1O [1:19, 2-tert-butylphenol]	7.5 log CFU/ml	
CC1=CCC(C(C)(C)O)CC1 (stereo not drawn) [1:5, alpha-terpineol]	0 log CFU/ml	
CCC(C)c1ccccc1O (centres unmarked) [1:25, 2-sec-butylphenol]	7.5 log CFU/ml	
Oc1ccc(C2CCCC2)cc1 [1:36, 4-cyclopentylphenol]	7.1 log CFU/ml	
Oc1cccc(-c2ccccc2)c1 [3:3, 3-phenylphenol]	7.7 log CFU/ml	
CC1=CCC(C(C)(C)O)CC1 (stereo not drawn) [1:6, alpha-terpineol]	7 log CFU/ml	
CCCCc1ccc(O)cc1 [1:12, 4-n-butylphenol]	0 log CFU/ml	
Oc1ccccc1Cc1ccccc1 [1:42, 2-benzylphenol]	7.1 log CFU/ml	
Oc1cccc(-c2ccccc2)c1 [3:1, 3-phenylphenol]	4.3 log CFU/ml	
Oc1ccc(C2CCCC2)cc1 [1:35, 4-cyclopentylphenol]	0 log CFU/ml	
CC(C)(C)c1ccccc1O [1:18, 2-tert-butylphenol]	0 log CFU/ml	
CCC(C)c1ccccc1O (centres unmarked) [1:24, 2-sec-butylphenol]	0 log CFU/ml	
CCCCCc1ccc(O)cc1 [1:16, 4-pentylphenol]	6.6 log CFU/ml	
CCCCc1ccc(O)cc1 [4-n-butylphenol]		MBC [1, 3]: 250 µg/mL (≈ 1.66 mM); antimicrobial action in combination with terpineol in the presence of surfactant (in words) [2]: enhanced antimicrobial action
Cc1ccc(C(C)C)c(O)c1 [Thymol, thymol, reference compound]		MBC [1, 3]: 500 µg/mL (≈ 3.33 mM)
CCCCc1ccc(O)cc1 [1:13, 4-butylphenol]	7.0 log CFU/ml	
CC(C)(C)c1cccc(O)c1 [3-tert-butylphenol]		MBC [1, 3]: 800 µg/mL (≈ 5.33 mM); antimicrobial action in combination with terpineol in the presence of surfactant (in words) [2]: enhanced antimicrobial action
CCCc1ccc(O)cc1 [1:8, 4-n-propylphenol]	0 log CFU/ml	
CC1=CCC(C(C)(C)O)CC1 (stereo not drawn) [B, alpha-terpineol, reference compound]		bacterial kill (in words) [1]: not showing bacterial kill
